In patent publication EP2386565A2, “Compounds and methods to inhibit or augment an inflammatory response” (Cambridge Enterprise Ltd., priority 1999, dated 2000):
“And” between values parts separate entries of the source, which are not always exact repeats. Identical values can stand only once. “Also recorded” adds a separate entry of the source. Positions of bridges follow the written chain, without caps; N, C: chain ends. Non-standard residues stand in square brackets, D forms with d. Residues, ends and D or L forms follow the SMILES beside them.

Experiments:
[1] = test system: ovalbumin-induced pulmonary inflammation, IgE, IL-4 and recall responses; assay: Ovalbumin-induced asthma / hypersensitivity model; type: in vivo, mice; design: Total IgE (Serum), individual mice m1-m4 / Total IgE (Serum), Avg.: unit not given here; conditions: for ng/ml IgE (4X avg.): serum; for splenocyte recall response to OVA (in words): versus positive controls
Experimental: A third study assessed the efficacy of daily dosing with CRD-Leu4Ile11Cys13 peptide 3(3-12)[MCP-1] to reduce OVA-induced pulmonary inflammation. Mice were sensitized with 0.1 mg of ovalbumin or PBS (diluent control) intraperitoneally in the absence of the test agent. […] These treatments were given daily from day 8 through day 21. On day 8, thirty minutes following treatment, mice were challenged intratracheally with 1% ovalbumin or PBS. On days 15, 18, and 21, thirty minutes following treatment, mice were challenged intratracheally with 2% ovalbumin or PBS. Mice were sacrificed 3 hours post-ovalbumin challenge, on day 21. Lungs were collected for histopathology, and for isolation of cells for total cell counts and FACS analysis. Bronchalveolar lavage (BAL) was collected for eicosinoid levels. Serum was collected for IgE and IL-4 levels. Spleens were collected for cytokine recall responses. […]

[2] = test system: lung cells of normal mice; assay: Cell number and cell type in the lungs of normal mice; type: in vivo
Experimental: To determine whether increasing doses of CRD-Leu4Ile11Cys13 peptide 3(3-12)[MCP-1] alters the cell number and type of cell within the lungs of normal mice, mice were injected intravenously, intravenously and intratracheally, or intratracheally alone with CRD-Leu4Ile11Cys13 peptide 3(3-12)[MCP-1]. Mice were sacrificed at 20-24 hours post injection. Lungs were collected for isolation of cells, which were subsequently counted and characterized by surface staining for CD3, CD4, CD8, B220, and Mac-1.

THP-1 cells = assay: Agonist activity: agent in the lower compartment of the migration chamber; type: cell-based, human
Excerpt: Agents with agonist activity may also be identified using the transwell migration assay, where the cells are placed in the upper compartment (see Figure 1) in the absence of agent, and the agent, e.g. peptide 2[MCP-1], is placed at varying concentrations in the lower compartment in place of the chemokine. […] Preferably, agents having agonist activity also stimulate migration of primary human cells, e.g., monocytes, in a transwell migration assay.
To evaluate the agonist activity ofCRD-Leu4Ile11Cys13 peptide 3(3-12)[MCP-1], CRD-Leu4Ile11Cys13 peptide 3(3-12)[MCP-1] was placed in the lower compartment of the migration chamber at various concentrations and 50,000 THP-1 cells were placed in the upper compartment. The number of cells in the lower compartment after 4 hours was then determined using the vital dye MTT. […] At higher concentrations (1 µM and 10 µM), there may be a small stimulation of migration in this experiment, although the magnitude of this migratory response was less than that seen with 3.25 ng/ml recombinant MCP-1. CRD-Leu4Ile11Cys13 peptide 3(3-12)[MCP-1] is unlikely to have any agonist activity that is significant at concentrations attainable in vivo.

[3] = Group 5: Ova on days 8, 15, 18, 21, treat BID 14 days, sacrifice day 34 (No recent Ova challenge), 0 µg/ml Ova
[4] = Group 5: PBS on days 8, 15, 18, 21, treat BID 14 days, sacrifice day 34 (No recent Ova challenge), 0 µg/ml Ova

`CC[C@@H](C)[C@H]1NC(=O)[C@@H](CCC(N)=O)NC(=O)[C@H](N)CSSC[C@H](C(N)=O)NC(=O)[C@@H](CC(C)C)NC(=O)[C@@H](CC(=O)O)NC(=O)[C@H]2CCCN2C(=O)[C@@H](CCCCN)NC(=O)[C@@H](CCC(N)=O)NC(=O)[C@@H](CCCCN)NC(=O)[C@@H](Cc2c[nH]c3ccccc23)NC1=O` (H-[dC][dQ][dI][dW][dK][dQ][dK][dP][dD][dL][dC]-NH2; disulfide 1-11) was tested, and the “IL-4 Assays, pg/ml IL-4, individual mice m1-m4” value ([1]; Group 4, 50 µg/ml Ova) was 14.38 pg/mL and 22.08 pg/mL and 10.25 pg/mL and 11.09 pg/mL, the “Total IgE (1 week splenocyte cultures)” value ([1]; Group 4, 50 µg/ml Ova) was 0.082 ng/mL and the “Total IgE (1 week splenocyte cultures), Avg.” value ([1]; Group 4, 50 µg/ml Ova) was 0.021. The “Total IgM + IgG (1 week splenocyte cultures), Avg.” value (“Total IgM + IgG … Avg.” below) ([1]; Group 4, 50 µg/ml Ova) was 416.86, the “Total IgE (1 week splenocyte cultures), individual mice m1-m4” value ([1]; Group 4, 50 µg/ml Ova, listed as CRD-Leu4Ile11Cys13peptide 3(3-12)[MCP-1]) was 0.013 and 0.043 and 0.008 and 0.018 and the “Total IgM + IgG (1 week splenocyte cultures), individual mice m1-m4” value (“Total IgM + IgG … individual mice m1-m4” for short) ([1]; Group 4, 50 µg/ml Ova, listed as CRD-Leu4Ile11Cys13 peptide 3(3-12)[MCP]) was 338.50 and 679.86 and 487.87 and 161.20. For the same compound, the “ng/ml IgE (4X avg.)” value ([1]; Group 4) was 2.482 ng/mL, the “Total IgE (Serum), Avg.” value ([1]; Group 5) was 1.102 and the “Total IgE (1 week splenocyte cultures), individual mice m1-m4” value ([1]; Group 5 (No recent Ova challenge), 0 µg/ml Ova) was 0.008 and 0.033 and 0.000 and 0.024. The “Total IgE (Serum), individual mice m1-m4” value ([1]; Group 5 (treated 14 days, no recent Ova challenge)) was 0.625 and 1.870 and 0.838 and 1.073, the “IL-4 Assays, pg/ml IL-4, Avg. of Group” value [1, 3] was 8.05 pg/mL and the “IL-4 Assays, pg/ml IL-4, individual mice m1-m4” value [1, 3] was 9.09 pg/mL and 3.80 pg/mL and 12.89 pg/mL and 6.42 pg/mL. The “Total IgM + IgG … Avg.” value [1, 4] was 20.05, the “Total IgM + IgG … individual mice m1-m4” value [1, 4] was 26.54 and 15.44 and 21.35 and 16.89 and the “Total IgE (1 week splenocyte cultures)” value ([1]; Group 5, 0 µg/ml Ova) was 0.065 ng/mL. For the same compound, the “Total IgE (1 week splenocyte cultures), Avg.” value ([1]; Group 5, 0 µg/ml Ova) was 0.016, the “IL-4 Assays, pg/ml IL-4, Avg. of Group” value ([1]; Group 5, 5 µg/ml Ova) was 6.33 pg/mL and the “IL-4 Assays, pg/ml IL-4, individual mice m1-m4” value ([1]; Group 5, 5 µg/ml Ova) was 5.70 pg/mL and 4.43 pg/mL and 10.09 pg/mL and 5.10 pg/mL. The “Total IgE (1 week splenocyte cultures)” value ([1]; Group 5, 5 µg/ml Ova) was 0.082 ng/mL, the “Total IgE (1 week splenocyte cultures), Avg.” value ([1]; Group 5, 5 µg/ml Ova) was 0.021 and the “Total IgE (1 week splenocyte cultures), individual mice m1-m4” value ([1]; Group 5, 5 µg/ml Ova) was 0.003 and 0.065 and 0.000 and 0.014. The “Total IgM + IgG … Avg.” value ([1]; Group 5, 5 µg/ml Ova) was 53.22, the “Total IgM + IgG … individual mice m1-m4” value ([1]; Group 5, 5 µg/ml Ova) was 64.20 and 31.21 and 67.94 and 49.53 and the “IL-4 Assays, pg/ml IL-4, Avg. of Group” value ([1]; Group 5, 50 µg/ml Ova) was 5.61 pg/mL. For the same compound, the “IL-4 Assays, pg/ml IL-4, individual mice m1-m4” value ([1]; Group 5, 50 µg/ml Ova) was 7.02 pg/mL and 6.10 pg/mL and 4.74 pg/mL and 4.59 pg/mL, the “Total IgE (1 week splenocyte cultures)” value ([1]; Group 5, 50 µg/ml Ova) was 0.021 ng/mL and the “Total IgE (1 week splenocyte cultures), Avg.” value ([1]; Group 5, 50 µg/ml Ova) was 0.005. For the same compound, the “Total IgE (1 week splenocyte cultures), individual mice m1-m4” value ([1]; Group 5, 50 µg/ml Ova) was 0.000 (2×) and 0.020 and 0.001, the “Total IgM + IgG … Avg.” value ([1]; Group 5, 50 µg/ml Ova) was 111.41 and the “Total IgM + IgG … individual mice m1-m4” value ([1]; Group 5, 50 µg/ml Ova) was 86.16 and 80.04 and 189.70 and 89.74. The “ng/ml IgE (4X avg.)” value ([1]; Group 5) was 4.406 ng/mL, the “inflammatory infiltrates in the lung, histology (in words)” value ([1]; first study, high dose) was “minimal to no inflammatory infiltrates” and the “reduction in IL-4” value ([1]; second study, dose-dependent) was 85%. For the same compound, the reduction in macrophages ([1]; second study, dose-dependent) was 74%, the “reduction in total cells in the lung” value ([1]; second study, dose-dependent) was “approximately 50%” and the “reduction in IgE” value ([1]; second study, s.c. 10.3 µg-1.03 mg before OVA challenges, dose-dependent) was 60%. For the same compound, the “cells in the lungs, total counts / FACS (in words)” value ([1]; versus PBS + OVA positive controls, study and dose as in the block) was “significantly lower numbers of CD3, CD4, B220, and Mac-1 cells; also recorded: significantly lower percentages of macrophages; also recorded: significantly lower numbers of macrophages, B cells, and CD4+ T cells; also recorded: no significant reduction of total cells in the lungs”, the “IgE levels (in words)” value ([1]; versus PBS + OVA positive controls, study as in the block) was “not detectable above background; also recorded: significantly lower; also recorded: significantly reduced; also recorded: reduced levels of serum IgE” and the “splenocyte recall response to OVA (in words)” value ([1]; study as in the block) was “reduced levels of IL-4, IgE, and total IgG and IgM”. The “splenocyte recall response to OVA (in words)” value ([1]; study as in the block, listed as CRD-Leu4Ile11Cys13peptide 3(3-12)[MCP-1]) was “significantly less IL-4”, the “percentages of CD3, CD4, and B220 cells in lung of normal mice (in words)” value ([2]; high dose, all routes of administration) was “significantly reduced” and the “total number of cells isolated from the lungs of normal mice (in words)” value ([2]; low dose (0.3 µg IV and/or 10 µg IT) compared to PBS) was “higher”. For the same compound, the “agonist activity (in words)” value (THP-1 cells) was “No agonist activity was detected”.
